Data: paper PMC3836372 (Biochemical and biophysical research communications, 2013)

Target: BmorOR1·BmorOrco (Bombyx mori, UniProt Q5WA61, P178A)
Assay type: cell-based
Conditions: agonist; co-expressed with BmorOrco; 0.1% DMSO; -80 mV

CCC/C=C\C=C\CCCCCCCCCO [bombykol, (10E,12Z)-hexadecadien-1-ol]
two-electrode voltage clamp, Xenopus oocytes, dose-response of odorant-induced c: the effect on P178A-BmorOR1 was moderate
